# Results reported in patent publication US20120027815A1, “USE OF PLASMA MEMBRANE CALCIUM ATPASE (PMCA) INHIBITORS TO INHIBIT SPERM MOBILITY” (priority 2003, published 2012).
# Legend:
# PMCA = conditions: in vitro; cited from earlier work
# normal sperm = test: Inhibition of sperm motility evaluated automatically with the CASA System 4.2; assay type: cell-based, mouse; conditions: Group C: normal sperm, 45 minutes after preparation, 37° C., 30 minutes with 20 μM inhibitor
# Procedure: PMCA4-deficient male mice were sacrificed and the epididymis of each was prepared. These tissues were placed into 2 ml of a sperm preparation medium (“Sperm Preparation Medium” from the MediCult a/s Company, Möllehaven 12, 4040 Jyllinge, Denmark, comprising: Earle's balanced saline solution, sodium pyruvate, synthetic serum substitute, IIEPES [hydroxy-ethyl-piperazine ethanesulphonic acid], sodium bicarbonate, human serum albumen; penicillin 50,000 IU/liter and streptomycin 50 mg/litre; Kahn, J. A., Human Reproduction 8/9, pages 1414-1419, 1993; Lähteenmaki, A., Human Reproduction 10/1, pages 142-147, 1995) and a subsequent incision was made using a sterile scalpel. All functioning sperm were allowed 15 minutes to swim out of the epididymis. […] Afterwards, the remaining motile sperm were counted in relation to the non-motile ones.
# The inhibition of sperm motility was further evaluated automatically using the CASA System 4.2 from the medeaLAB Company, Erlangen, Germany. […]
# For the above automated experimental protocol, the incubation time (compared to manual counting) was shortened (only 30 minutes instead of 1 hour) and the software also recorded non-meaningful objects that were present in the sample, such objects could be readily excluded with manual counting.
# sperm = test: Suppression of sperm mobility, manual counting of motile vs non-motile sperm; assay type: cell-based, mouse; conditions: incubated 1 hour at 37° C., 30% non-motile without inhibitor
# Procedure: The inhibition of sperm function, i.e. the inhibition of sperm mobility, was determined as follows:
# PMCA4-deficient male mice were sacrificed and the epididymis of each was prepared. These tissues were placed into 2 ml of a sperm preparation medium (“Sperm Preparation Medium” from the MediCult a/s Company, Möllehaven 12, 4040 Jyllinge, Denmark, comprising: Earle's balanced saline solution, sodium pyruvate, synthetic serum substitute, IIEPES [hydroxy-ethyl-piperazine ethanesulphonic acid], sodium bicarbonate, human serum albumen; penicillin 50,000 IU/liter and streptomycin 50 mg/litre; Kahn, J. A., Human Reproduction 8/9, pages 1414-1419, 1993; Lähteenmaki, A., Human Reproduction 10/1, pages 142-147, 1995) and a subsequent incision was made using a sterile scalpel. All functioning sperm were allowed 15 minutes to swim out of the epididymis. The supernatant containing these sperm was removed and mixed with 500 μl each of increasing concentrations of 5- and 6-carboxyeosindiacetate succinimidyl ester (CE). Following this step, the sperm were incubated for 1 hour at 37° C. CE diffuses into the sperm during this time; the ester is hydrolyzed on the intracellular level. Afterwards, the remaining motile sperm were counted in relation to the non-motile ones.
Substance,Binding to PMCA and influence on PMCA function (PMCA),locally mobile or non-motile (normal sperm; untreated Group A 27%) [%],Progressive motility (normal sperm; untreated Group A 73%) [%],Non-motile sperm (sperm; CE concentration 5 μM) [%],Non-motile sperm (sperm; CE concentration 20 μM) [%],Non-motile sperm (sperm; CE concentration 100 μM) [%]
"Caloxin 2A1: polypeptide with the amino acid sequence VSNSNWPSFPSSGGG, acts extracellularly on PMCA",binds extra-cellularly to PMCA and has an inhibitory influence on the function of the PMCA,–,–,–,–,–
5- and 6-carboxyeosindiacetate succinimidyl ester,–,78,22,90,95,97
